Read-outs that look alike come from different tables or passages of the source.
Test system: 407 cancer cell lines
Test: Cell viability of cancer cell lines (IC50), CellTiter-Glo Viability Assay, 96 h
Format: cell-based
Conditions: Homo sapiens, read-out: Absolute IC50
Protocol: Viability was determined by using the 50% inhibitory concentration (IC50) as determined with the CellTiter-Glo® Viability Assay (Promega).
Experiments were initiated by first thawing and equilibrating the CellTiter-Glo® Buffer to room temperature. The lyophilized CellTiter-Glo® Substrate was also equilibrated to room temperature. The lyophilized substrate was reconstituted with the CellTiter-Glo® buffer to form the CellTiter-Glo® Reagent.
Cells were harvested during the logarithmic growth period, counted, and the cell concentration adjusted to 4.44×10^4 cells/mL using culture medium.
Cells were allowed to grow overnight and the following day, the TO reading was obtained by adding 10 μL culture medium to each well of Plate A. The plate was allowed to equilibrate at room temperature for thirty minutes, after which 50 μL CellTiter-Glo® reagent was added to each well. The contents were mixed for 5 min on an orbital shaker to induce cell lysis. Plates were incubated for 20 minutes to stabilize the luminescent signal and the TO luminescence recorded.
Test plate B was incubated for 96 h in the humidified incubator at 37° C. with 5% CO2.
Following the incubation, the plate was equilibrated at room temperature for thirty minutes. CellTiter-Glo® (50 μL) was added to each well of the plate and contents mixed for five minutes on an orbital shaker to induce cell lysis. The luminescent signal was allowed to stabilize at room temperature for 20 minutes and the luminescence recorded.
IC50 (EC50) was calculated using a dose-response curve, fitted using a nonlinear regression model with a sigmoidal dose response. Survival rate was calculated using the formula:
The Surviving rate (%)=(LumTest article−LumMedium control)/(LumNon-treated−LumMedium control)×100%.
Absolute IC50 (EC50) was calculated according to the dose-response curve generated by the statistical software (GraphPad Prism 5.0).

With `Cc1nn(-c2nc(-c3ccc(C(F)(F)F)cc3)c(SC(C)C)s2)c(C(=O)O)c1-c1cccc(F)c1` [Compound A197, 4-(3-fluorophenyl)-1-(5-(isopropylthio)-4-(4-(trifluoromethyl)phenyl)thiazol-2-yl)-3-methyl-1H-pyrazole-5-carboxylic acid] as the molecule, how does the IC50 (NCI-H292, 96 h, NCI-H292 cells, 96 h) read?
The IC50 was over 30000 nM.

What about the IC50 (NCI-H358, 96 h, NCI-H358 cells, 96 h) of the same molecule?
Its IC50 is 380 nM.

What about the IC50 (NCI-H441, 96 h, NCI-H441 cells, 96 h) of the same molecule?
Its IC50 is over 30000 nM.

And the IC50 (NCI-H446, 96 h, NCI-H446 cells, 96 h)?
Its IC50 is over 30000 nM.

And the IC50 (NCI-H460, 96 h, NCI-H460 cells, 96 h)?
The IC50 was over 30000 nM.

What about the IC50 (NCI-H508, 96 h, NCI-H508 cells, 96 h) of the same molecule?
Its IC50 is 1330 nM.

And the IC50 (NCI-H520, 96 h, NCI-H520 cells, 96 h)?
Its IC50 is 300 nM.

And the IC50 (NCI-H522, 96 h, NCI-H522 cells, 96 h)?
Its IC50 is over 30000 nM.

And the IC50 (NCI-H526, 96 h, NCI-H526 cells, 96 h)?
The IC50 was over 30000 nM.

What about the IC50 (NCI-H596, NCI-H596) of the same molecule?
Its IC50 is over 30000 nM.

And the IC50 (NCI-H661, 96 h, NCI-H661 cells, 96 h)?
Its IC50 is over 30000 nM.

What about the IC50 (NCI-H716, 96 h, NCI-H716 cells, 96 h) of the same molecule?
Its IC50 is 1570 nM.

What about the IC50 (NCI-H727, 96 h, NCI-H727 cells, 96 h) of the same molecule?
The IC50 was over 30000 nM.

And the IC50 (NCI-H747, 96 h, NCI-H747 cells, 96 h)?
The IC50 was over 30000 nM.

And the IC50 (NCI-H929, NCI-H929)?
Its IC50 is 19000 nM.

What about the IC50 (NCI-H1048, 96 h, NCI-H1048 cells, 96 h) of the same molecule?
Its IC50 is over 30000 nM.

What about the IC50 (NCI-H1155, 96 h, NCI-H1155 cells, 96 h) of the same molecule?
Its IC50 is 460 nM.

What about the IC50 (NCI-H1299, 96 h, NCI-H1299 cells, 96 h) of the same molecule?
The IC50 was 780 nM.

And the IC50 (NCI-H1373, NCI-H1373)?
Its IC50 is 800 nM.

And the IC50 (NCI-H1395, NCI-H1395)?
Its IC50 is 370 nM.

And the IC50 (NCI-H1437, 96 h, NCI-H1437 cells, 96 h)?
The IC50 was 310 nM.

And the IC50 (NCI-H1563, NCI-H1563)?
The IC50 was over 30000 nM.

What about the IC50 (NCI-H1573, 96 h, NCI-H1573 cells, 96 h) of the same molecule?
The IC50 was 460 nM.

What about the IC50 (NCI-H1581, 96 h, NCI-H1581 cells, 96 h) of the same molecule?
The IC50 was over 30000 nM.

And the IC50 (NCI-H1648, 96 h, NCI-H1648 cells, 96 h)?
The IC50 was over 30000 nM.

What about the IC50 (NCI-H1650, NCI-H1650) of the same molecule?
The IC50 was over 30000 nM.

And the IC50 (NCI-H1651, 96 h, NCI-H1651 cells, 96 h)?
Its IC50 is 860 nM.

What about the IC50 (NCI-H1666, 96 h, NCI-H1666 cells, 96 h) of the same molecule?
Its IC50 is over 30000 nM.

And the IC50 (NCI-H1703, 96 h, NCI-H1703 cells, 96 h)?
Its IC50 is 360 nM.

And the IC50 (NCI-H1792, 96 h, NCI-H1792 cells, 96 h)?
Its IC50 is 1270 nM.

What about the IC50 (NCI-H1838, 96 h, NCI-H1838 cells, 96 h) of the same molecule?
The IC50 was over 30000 nM.

And the IC50 (NCI-H1975, 96 h, NCI-H1975 cells, 96 h)?
The IC50 was over 30000 nM.

And the IC50 (NCI-H1993, 96 h, NCI-H1993 cells, 96 h)?
The IC50 was 1200 nM.

What about the IC50 (NCI-H2009, NCI-H2009) of the same molecule?
The IC50 was 4840 nM.

And the IC50 (NCI-H2052, NCI-H2052)?
Its IC50 is over 30000 nM.

What about the IC50 (NCI-H2087, 96 h, NCI-H2087 cells, 96 h) of the same molecule?
The IC50 was over 30000 nM.

What about the IC50 (NCI-H2122, 96 h, NCI-H2122 cells, 96 h) of the same molecule?
The IC50 was 270 nM.

What about the IC50 (NCI-H2170, 96 h, NCI-H2170 cells, 96 h) of the same molecule?
The IC50 was 500 nM.

And the IC50 (NCI-H2228, 96 h, NCI-H2228 cells, 96 h)?
Its IC50 is 610 nM.

And the IC50 (NCI-H2452, NCI-H2452)?
Its IC50 is over 30000 nM.

What about the IC50 (NCI-H3122, 96 h, NCI-H3122 cells, 96 h) of the same molecule?
Its IC50 is 390 nM.

And the IC50 (NCI-N87, 96 h)?
The IC50 was 1470 nM.

And the IC50 (NUGC-3, 96 h, NUGC-3 cells, 96 h)?
The IC50 was 22900 nM.

And the IC50 (NUGC-4, 96 h, NUGC-4 cells, 96 h)?
The IC50 was 1530 nM.

What about the IC50 (OCI-AML-3, OCI-AML3) of the same molecule?
Its IC50 is over 30000 nM.

What about the IC50 (OCI-LY19, OCI-LY-19) of the same molecule?
Its IC50 is 950 nM.

And the IC50 (OCI-Ly7, 96 h, OCI-LY7 cells, 96 h)?
Its IC50 is 680 nM.

And the IC50 (OE19, 96 h)?
Its IC50 is over 30000 nM.

And the IC50 (OPM-2, OPM2)?
The IC50 was 370 nM.

What about the IC50 (OS-RC-2, OS-RC-2) of the same molecule?
The IC50 was over 30000 nM.

And the IC50 (OVCAR-3, 96 h, OVCAR-3 cells, 96 h)?
Its IC50 is over 30000 nM.

What about the IC50 (OVCAR-8, 96 h, OVCAR-8 cells, 96 h) of the same molecule?
The IC50 was 1020 nM.

And the IC50 (PANC-1, PANC-1)?
The IC50 was 2700 nM.

And the IC50 (PC-3, PC-3)?
Its IC50 is over 30000 nM.

What about the IC50 (PC-9, 96 h, PC-9 cells, 96 h) of the same molecule?
Its IC50 is 1110 nM.

What about the IC50 (PLC-PRF-5, PLC/PRF/5) of the same molecule?
The IC50 was 1240 nM.

And the IC50 (Pfeiffer, 96 h, Pfeiffer cells, 96 h)?
The IC50 was 180 nM.

And the IC50 (REH)?
The IC50 was 310 nM.

What about the IC50 (RKO) of the same molecule?
The IC50 was 23600 nM.

And the IC50 (RL95-2, 96 h, RL95-2 cells, 96 h)?
The IC50 was 420 nM.

What about the IC50 (RPMI-2650, 96 h, RPMI-2650 cells, 96 h) of the same molecule?
The IC50 was 810 nM.

And the IC50 (RPMI-8226, 96 h, RPMI 8226 cells, 96 h)?
The IC50 was 750 nM.

— patent US20210278408A1, “METHODS OF TREATMENT OF CANCER WITH SUBSTITUTED PYRROLE AND PYRAZOLE COMPOUNDS AND DIAGNOSIS OF CANCERS SUSCEPTIBLE TO TREATMENT WITH SUBSTITUTED PYRROLE AND PYRAZOLE COMPOUNDS” (Bantam Pharmaceutical, LLC, priority 2018, published 2021)
